# Tests used:
# PC12 cells [1] = assay: Membrane resistance and membrane potential after light irradiation (patch clamp); type: cell-based, rat
# Method: Since minute membrane defects must be monitored at a cell level for a period of time in the order of seconds to several minutes including a recovery process, the patch clamp method, which is used for electrophysiological experiments, was used to measure the potential between the cell membranes or ion current transmitted through the cell membrane.
# The photosensitizer BAT was dispersed in a HEPES (25 mM, pH 7.4) buffer.
# The cells were incubated in a culture medium for electrophysiological experiments at roam temperature. The culture medium used for this experiment was composed of 124 mM of NaCl, 5 mM of KCl, 2.4 mM of CaCl2.2H2O, 1.3 mM of MgSO4.7H2O, and 10 mM of glucose, with a final pH adjusted to 7.4 by addition of NaOH. To prevent the averse effects of evaporation, the culture medium for electrophysiological experiments was replaced with a new at the intervals of 40 minutes at maximum.
# The BAT was added so as to have a final Concentration of 49 μM. The quantity of light applied was set at three levels: 0.47 J/cm^2, 0.94 J/cm^2, and 1.57 J/cm^2.
# A liquid in the patch electrode was composed of 132 mM of KCl, 8 mM of NaCl, 2 mM of MgCl2, 30 mM of HEPES, 4 mM of Na2ATP, 0.3 mM of GTP, and 0.5 mM of EGTA, with a final pH adjusted to 7.3 by addition of NaOH.
# Since a zoom function allows light to be concentrated in an area smaller than a normal area, the amount of light per unit area increases in proportion to the square of a zoom magnification. The excitation light is transmitted through the plastic of the collagen coat dish before actually reaching the cell, so that a decrease in light quantity must actually be taken into consideration.
# In irradiating the cell with the excitation light, a TTL signal operating in connection with an electrophysiological record is transmitted to the light source as required to synchronize the light irradiation with electric measurements.
# Before starting the electrophysiological experiments, the cell membrane potential had been maintained between −80 and −60 mV.
# The cell membrane potential measuring amplifier was Axpopatch 1-D (Axon Instruments). The membrane resistance was calculated from a change in membrane potential occurring when a 1-Hz rectangular-wave overpolarization current flowed through the membrane for 350 milliseconds. The amount of, current supplied (0.1 or 0.15 nA) was selected so that the change in membrane potential would not exceed 30 mV when power was supplied. Under these experimental conditions, the PC12 cell generated no action potential. Measured potential and current values were analyzed using Axoscope ver. 1.1 (manufactured by Axon Instruments).
# In FIG. 9, the axis of abscissa indicates an elapsed time (unit: second). The axis of ordinate indicates the resistance of the cell membrane (unit: %) in the upper part and the potential thereof in the lower part, both values being normalized by setting corresponding values prior to irradiation equal to […]. The membrane resistance reflects the ion transmission inhibiting capability, and the membrane potential reflects the active ion transporting capability of the membrane effected by activities of various intermembrane ion transporting systems as well as the ion transmission inhibiting capability.
# A microinjection device was connected to a minute glass pipette held in a micromanipulator, and the minute glass pipette was filled with a solution with the photosensitizer BAT dispersed therein (BAT concentration: 2 mM, water solvent). The glass pipette was located in such a manner that its tip was connected to the patch electrode and located within 200 μm from a cell for which the membrane potential and resistance were to be measured.
# PC12 cells [2] = assay: Microinjection success rate (Lucifer Yellow injection) using photosensitized membrane destruction; type: cell-based, rat; settings: BAT-containing injection liquid, no light applied, capillary kept in contact with cell, n=30
# Method: To determine whether the microinjection process was successful, the water-soluble fluorescent pigment Lucifer Yellow CH (LY)was added to an injection liquid. […] Evaluation was made to determine how the success rate of injection of the LY into the cell varied depending on the presence of the photosesirizer BAT in the injection liquid or the presence of application of the BAT exciting light.
# To make the microinjection successful, a glass capillary having a diameter of several hundred nanometers at a tip opening thereof must be brought into contact with the cell at a high speed to physically instantaneously penetrate and punch the cell membrane. In the experiments, an electric micromanipulator (manufactured by Eppendorf; Micromanipulator 5171) and an electric injector (manufactured by Eppendorf; Transjector 5246), which can both operate under the control of a program, could be used to set a speed at which the capillary contacted with the membrane, at an arbitrary value. In addition, the injection capillary was a commercially available product (manufactured by Eppendorf; FemtoTips) mass-produced for the above apparatuses. […]
# PC12 cells [3] = assay: Cell survival rate after injection process (LY retaining rate); type: cell-based, rat
# Method: A cell survival rate after the injection process was compared between cells subjected to the normal microinjection process using the physical shearing force and cells subjected to the photosensitizing microinjection.
# The LY was injected into the cell by means of microinjection. In a dead cell with its cell membrane collapsed, the LY disperses quickly to lose its color [Cell, 14, 741-759 (1987)]. Thus, using a rate at which the cell subjected to the injection process holds the LY, as an index indicating the cell survival rate, the survival rates 3 and 6 days after the injection process were compared to each other.
# In FIG. 13, the axis of abscissa indicates the number of days passing after the injection process (unit: day), while the axis of ordinate indicates the survival rate (units %).
# Water solubility = type: physicochemical
# Source text: A thiophen oligomer having an aminomethyl group at a terminal thereof has a higher water solubility than any other derivative of the same kind due to this terminal aminomethyl group. The water solubility varies depending on how the aminomethyl group is released. […] By irrigating the cell with the BAT-dispersed solution under the above pH condition, this molecule can be easily added to a surface of the cell. The hydrophilic property of the BAT molecule is new and is absent from the other modified thiophen oligomers including an a terthienyl derivative as well as other molecules designed as conductive high-molecular monomers.
# [4] = B: 4.94 J/cm^2 light, BAT 49 μM, several seconds after irradiation
Compound,"cell membrane resistance and membrane potential after light irradiation (PC12 cells [1]; A: 0.47 J/cm^2 light, BAT 49 μM, 363-nm argon ion laser)",cell membrane resistance after light irradiation (PC12 cells [1]; [4]),membrane potential after light irradiation (PC12 cells [1]; [4]),"cell membrane potential after laser beam (PC12 cells [1]; BAT 2 mM dispersed solution ejected from minute glass pipette onto target cell, laser as in Example 3)","time after light irradiation to loss of membrane resistance and potential (PC12 cells [1]; C: 1.57 J/cm^2 light, BAT 49 μM)","cell membrane resistance and membrane potential after light irradiation (PC12 cells [1]; C: 1.57 J/cm^2 light, BAT 49 μM, then remained at fixed values (irreversible))",injection success rate (PC12 cells [2]) [%],"cell survival rate (LY retention) (PC12 cells [3]; photosensitizing injection (BAT + light), three to six days after injection)",water solubility (Water solubility; acid water solution (bivalent positive charge)),"water solubility (Water solubility; water solution with biologically suitable pH range (near 7.4), univalent positive charge type)","survival rate (PC12 cells [3]; control examples: normal injection, 3 days after the injection) [%]"
"Cl.Cl.NCc1ccc(-c2ccc(-c3ccc(CN)s3)s2)s1 [BAT, 5′5″-bis(aminomethyl)-2,2′:5′2″-terthiophene dihydrochloride]",varied slightly but not significantly,decreased,depolarized,depolarized,about 8 seconds,lost,13,about 90%,easily soluble,maintains a high water solubility,–
"NNC(=O)NN1C(=O)c2cc(S(=O)(=O)O)cc3c(N)c(S(=O)(=O)O)cc(c23)C1=O [LY, Lucifer Yellow CH, reference compound]",–,–,–,–,–,–,–,–,–,–,17

# From patent US6537800B1, “Apparatus for automatically measuring minute membrane potential” (Center for Advanced Science and Technology Incubation, Ltd., priority 1998, dated 2003)
